Spine density, actin-based spine motility and lesion-induced spine degeneration data for 3 compounds are collected here from patent publication US20020004632A1 (priority 2000, published 2002).

Test [1] has as its system Rat hippocampal CA1 neurons. Kind of test: Spine morphology of transfected neurons in cultured hippocampal brain slices, 2PLSM imaging and automatic spine analysis algorithm. Format: cell-based. The settings on record: biollistic cotransfection with GFP; compared to the GFP control; at least 5 neurons per group. On the procedure: Cultured hippocampal brain slices were prepared from 7 day old rats. After five days in vitro a small subset of neurons were biollistically transfected (for example, Lo, et al., (1994). Neuronal transfection in brain slices using particle-mediated gene transfer, Neuron 13, 1263-1268, the contents of which are hereby incorporated by reference) with a plasmid carrying the gene for enhanced green fluorescent protein (GFP) (commercially available from Clonetech) At least two days after transfection, slices were transferred to a perfusion chamber for imaging. Labeled neurons were identified and imaged using a custom-made 2PLSM laser scanning microscope (as described in Mainen, Z. F., Maletic-Savatic, M., Shi, S. H., Hayashi, Y., Malinow, R., and Svoboda, K. (1999), Two-photon imaging in living brain slices, Methods 18, 231-239, the contents of which are hereby incorporated by reference). The light source was a Ti:sapphire laser running at a wavelength of ≈990 nm (repetition frequency 80 MHz; pulse length 150 fs). The average power delivered to the backfocal plane of the objective (40x, NA 0.8) varied depending on the imaging depth (range 30 to 150 mW). Fluorescence was detected in whole-field detection mode with a photomultiplier tube.
mTOR kinase controls the phosphorylation of the translation regulators p70^56k and 4E-BP1. […]

The subject of test [2] is dendritic spines. The settings on record: low levels; cited from earlier work.
Test [3] has as its system dendritic spines. The settings on record: low levels; cited from earlier work. This is another data set of the same source.

On to “mTOR wt: wild-type mTOR kinase expressed from a plasmid transfected by biollistic gene transfer”, for which the spine density result in test [1] is “increased”.

`N[C@@H](CCC(=O)O)C(=O)O` [glutamate]: the actin-based spine motility entry in test [2] is given as “abolished”.

`Cc1onc(O)c1CC(N)C(=O)O` (stereo not drawn) [AMPA, alpha-amino-3-hydroxy-5-methyl-4-isoxalone]: the actin-based spine motility entry in test [2] is listed as “abolished”. The lesion-induced spine degeneration result in test [3] is “block”.
